Results from patent US20050038062A1, “Methods and materials for the treatment of pain comprising opioid antagonists” (priority 2003, published 2005).
Entries after “also recorded” stand apart in the source; their conditions may differ.

Tests used:
[1] = system: rats with L5/L6 spinal nerve ligation (SNL); assay: thermal hyperalgesia: paw-withdrawal latency to radiant heat, rat L5/L6 spinal nerve ligation (SNL) model; assay type: in vivo; details: intrathecal twice daily
Method: (§1) This example describes an evaluation of neuropathic pain in an animal model. An in vivo rat L5/L6 spinal nerve ligation (SNL) study is conducted as described by Kim and Chung (1992). These in vivo experiments to evaluate neuropathic pain with compounds and compositions according to the invention as prescribed herein are conducted on male Sprague-Dawley rats (Harlan; Indianapolis, Ind.) that are 200-225 g at the time of the L5/L6 surgery as described below. The rats are maintained in a climate-controlled room on a 12-h light/dark cycle (lights on at 06:00 h); food and water are provided ad libiturn. The testing is performed in accordance with accepted policies and guidelines for the handling and use of laboratory animals.
In an initial study, the effects of intrathecally delivered morphine and naloxone or morphine alone are tested after ligation of the L5 and L6 spinal nerves in rats. At one week, after a neuropathic pain syndrome of thermal hyperalgesia and tactile allodynia is stabilized, rats receive daily intrathecal injections of vehicle, morphine alone, morphine plus naloxone or naloxone alone for seven days. […] The animals first undergo intrathecal implantation of a catheter that allows for drug delivery at the lumbar (L5) spinal cord region. Animal baseline withdrawals from thermal and tactile stimuli are recorded. Animals then undergo the L5/L6 ligation surgery as described below and are tested for tactile and thermal hypersensitivities, for example, on day 3 through day 7 after the surgery, and then, for example, on day 8, animals begin the twice daily intrathecal administration of vehicle or drug substances in doses as described below. Animals are tested, for example, from about 20 to about 30 minutes after the first daily intrathecal dose for hyperalgesic and anti-allodynia effects for a total of 7 days as described below.
While under halothane anesthesia, an 8 cm length of 32 gauge tubing is inserted in the Sprague-Dawley rats to the level of the lumbar enlargement via an incision made in the atlanto-occipital membrane. The catheter is then secured to the musculature at the site of incision, which is then closed. The rats receive 4.4 mg/kg of gentamycin (intramuscular administration) as a prophylactic precaution and are allowed 5-7 days for recovery before experimentation begins, for example, before L5/L6 ligation surgery begins as described below. […] Intrathecally administered substances are dissolved in saline (to a total volume of 5 μl) prior to administration through a length of tubing connecting the intrathecal catheter with the injection syringe. Progress of the injection is determined by observing the movement of an air bubble through a calibrated length of the tubing. The catheter is cleared by flushing with 9 μl saline.
For these experiments, morphine, when given either as the sole drug or in combination with naltrexone to the rats, is administered to the rats at a dosage ranging from 1-30 micrograms, if given intrathecally. Naltrexone, when given either as the sole drug or in combination with morphine to the rats, is administered to the rats at a dosage ranging from 1 femtogram (fg) to 30 nanograms (ng) if given intrathecally. For other experiments, if given systemically, morphine, when given either as the sole drug or in combination with naltrexone to the rats, is administered to the rats at a dosage ranging from 1 mg/kg to 20 mg/kg. If given systemically, naltrexone, when given either as the sole drug or in combination with morphine to the rats, is administered to the rats at a dosage ranging from 1 femtogram to 300 nanograms. Administration of drug or vehicle to the rat is performed, for example, both on a BID or QID basis. For these experiments, morphine sulfate is purchased from Sigmia (St. Louis, Mo.) and naltrexone hydrochloride is purchased from Tocris (Ellisville, Mo.). These substances are dissolved in sterile 0.9% physiological saline from Baxter (Deerfield, Ill.).

[2] = system: rats with L5/L6 spinal nerve ligation (SNL); details: morphine given alone by the intrathecal route; stated as well known; cited from earlier work
[3] = system: rats with L5/L6 spinal nerve ligation (SNL); assay: tactile allodynia: paw-withdrawal threshold to von Frey filaments, rat L5/L6 spinal nerve ligation (SNL) model; assay type: in vivo; details: naltrexone 0.1 ng alone, intrathecal twice daily; initial study
Method: as §1
In an initial study, the effects of intrathecally delivered morphine and naloxone or morphine alone are tested after ligation of the L5 and L6 spinal nerves in rats. […] Animal baseline withdrawals from thermal and tactile stimuli are recorded. […]
While under halothane anesthesia, an 8 cm length of 32 gauge tubing is inserted in the Sprague-Dawley rats to the level of the lumbar enlargement via an incision made in the atlanto-occipital membrane. […] Progress of the injection is determined by observing the movement of an air bubble through a calibrated length of the tubing. […]

With `CN1CC[C@]23c4c5ccc(O)c4O[C@H]2[C@@H](O)C=C[C@H]3[C@H]1C5` [morphine] the antihyperalgesia ([1]; morphine 10 μg alone, day 8 after SNL (= Day 1 of administration), initial study) was 65%, the antihyperalgesia ([1]; morphine 10 μg alone, day 9 after SNL (= Day 2), initial study) was 73% and the “antihyperalgesia (activity)” value ([1]; morphine 10 μg alone, day 11 after SNL (= Day 4), initial study) was 38%. For the same compound, the “tolerance to the antihyperalgesia effect” value ([1]; morphine 10 μg alone, initial study (day 11 after SNL = Day 4)) was “tolerance to the antihyperalgesia effect by day 11; also recorded: tolerance to the anti-hyperalgesia effect by Day 4”, the “antihyperalgesia, return to baseline” value ([1]; morphine 10 μg alone, initial study (day 12 after SNL = Day 5)) was “return to baseline by day 12; also recorded: return to baseline by day 5” and the antiallodynic effect [2] was “no antiallodynic effect”.
With `O=C1CC[C@@]2(O)[C@H]3Cc4ccc(O)c5c4[C@@]2(CCN3CC2CC2)[C@H]1O5` [naltrexone] the effect on antihyperalgesia ([1]; naltrexone 0.1 ng alone, initial study) was “no effect” and the effect on allodynia [3] was “no effect”.
